Data published in patent US20250346582A1, “SPLEEN TYROSINE KINASE INHIBITORS AND METHODS OF USE THEREOF” (THE BOARD OF TRUSTEES OF THE UNIVERSITY OF ILLINOIS, priority 2022, published 2025).

What was measured:
[1] = target: T1, Syk WT, E164D and E164Q (Homo sapiens, UniProt P43405); assay: Phosphorylation in Syk-deficient MV4-11 cells re-expressing Syk WT or E164 mutants; format: cell-based; conditions: Syk WT added back to Syk-deficient AML cells; 5 μM overnight
T1 construct: When the full-length E164D and E164Q, respectively, were introduced into Syk-deficient MV4-11 cells; expressed in transfected cells; host or cells: entospletinib-resistant MV4-11 cells with shRNA knockdown of endogenous Syk
Experimental: (§1) FIGS. 5A-5B show cellular target validation of WC36. (a) Inhibition of Syk WT and WC36-binding site mutants by WC36. Entospletinib-resistant MV4-11 cells were treated with shRNA to suppress the expression of endogenous Syk and then transfected with exogenous Syk-WT and four Syk-[…] genes, respectively. These constructs harbor silent mutations to avoid gene suppression by Syk ShRNA. Phosphorylation of Syk and ERK1/2 in these cells was then monitored before and after treatment with 5 μM WC36 overnight. […] (b) Western blot analysis of WC36B-binding proteins captured by pull-down by streptavidin beads. Biotin was used as a negative control. GAPDH was used as a gel loading control.
(§2) Cells were seeded at a density of 3.0×10^5 cells/well prior to incubation with inhibitors. Cells were incubated with 1-5 μM of Syk inhibitors overnight and stimulated with different antibodies: IgG2 for AML cells, IgM for Raji B cells, and OKT3 (Biolegend) for Jurkat cells. The cells were lysed in NP40 lysis buffer (50 mM Tris, pH 7.5, 150 mM NaCl, 1 mM EDTA, 1% NP40, 10% glycerol, 10 mM NaF, 10 mM Na3VO4, and the protease inhibitor cocktail) at 4° C. and the cell debris was removed by centrifugation. Samples were analyzed by SDS-PAGE. […] The chemiluminescence intensity of protein bands in the gel was analyzed and documented by the Azure 500Q Imaging System.

[2] = test system: Syk WT, E164D and E164Q; assay: as above; format: cell-based, human; conditions: Syk-deficient MV4-11 cells with full-length E164D or E164Q; 5 μM overnight
Experimental: as §1, §2

[3] = test system: Syk activation; assay: Immunoblotting of patient-derived primary AML cells; format: cell-based; conditions: primary AML cells from 4 patients refractory or relapsed
Experimental: (§3) Primary samples were obtained from an existing HEMBANK at UIC under an IRB approved research protocol (protocol #2021-0723). Cells were processed and treated with inhibitors as reported previously^75. For primary AML samples, mononuclear cells isolated by Ficoll density centrifugation were utilized. mononuclear cells were treated in culture at a density of 0.5×10^6/ml in StemSpan with CD34 expansion supplement (Stemcell Technologies) for 24 h and then harvested for immunoblotting assays. In parallel 2×10^4 cells were plated in triplicate for each treatment condition in Methoccult H4434 (Stem Cell Technologies) in the presence of drug. At days 12-14, colonies were manually enumerated under light microscopy and normalized to DMSO control for each individual sample due to interpatient variability in colony forming activity. Normalized colony forming units for pooled treated and untreated samples (n=4) were compared using unpaired 2-tailed t test. p<0.05 was considered statistically significant.

[4] = test system: patient AML cells; assay: Colony growth assay of patient-derived AML cells; format: cell-based; conditions: primary AML cells from 4 patients
Experimental: as §3

[5] = target: T2, Syk (Homo sapiens, UniProt P43405); assay: Streptavidin pull down assay with WC36B in MV4-11 cells; format: cell-based; conditions: WC36B-streptavidin pull down
T2 construct: host or cells: MV4-11 AML cells (naive and entospletinib-resistant)
Experimental: Streptavidin-coated beads (Dynabeads™ M280 streptavidin beads; ThermoFisher) were washed twice with 1 ml of PBST (PBS+0.1% Tween 20) and resuspended in 100 μl of PBST. WC36B (or biotin) (10 mM) was added to 100 μl of the bead suspension and the mixture was incubated at room temperature for 15 min with gentle shaking. The mixture was then vortexed for 5 s and the tube was placed on a magnet for 1 min. After discarding the supernatant, the beads were resuspended in the same volume of the washing buffer. Washing is repeated three times to remove excess WC36B. WC36B-coated beads were then incubated with the cell lysate (MV-4-11) for 30 min at room temperature with gentle shaking. Protein-coated beads were separated with a magnet for 2-3 min and washed 4-5 times with PBS containing 0.1% BSA. The protein was then removed from the beads by boiling the beads in the SDS-polyacrylamide gel electrophoresis (PAGE) application buffer. Samples were concentrated for the mass spectrometry analysis and the western blot assay.

[6] = target: T3, Syk-cSH2 E164D (Homo sapiens, UniProt P43405, E164D); assay: Fluorescence quenching vesicle binding assay, Syk-cSH2 E164D mutant; conditions: up to 5 μM; POPC/POPS/PIP3/dabsyl-PE vesicles
T3 construct: polyhistidine (N); made in house; host or cells: Escherichia coli BL21 (DE3) pLysS
Experimental: The membrane-binding assay is based on fluorescence quenching of EGFP fused to a SH2 domain by a dark quencher containing lipid, dabsyl-PE, incorporated in lipid vesicles. The plate reader assay was performed using the Synergy™ Neo spectrofluorometer at 25° C. Nontreated black polystyrene 96-well plates (Corning) were used. Protein (10-50 nM) with the increasing concentration of vesicles with a given lipid composition in 20 mM Tris buffer, pH 7.4, containing 0.16 M NaCl was added to each row of wells and the EGFP fluorescence emission at 516 nm was measured with excitation set at 485 nm. Z′ factor for the assay system was determined as described^74. Imax and IC50 values of inhibitors were determined using the equation, I=Imax/(1+IC50/[I]) where I and [I] indicate % inhibition and inhibitor concentration, respectively. The average and standard deviation values were obtained from triplicate determinations.

[7] = test system: entospletinib-resistant MV4-11 cells; assay: XTT cell proliferation assay, entospletinib-resistant MV4-11 cells; format: cell-based; conditions: Homo sapiens, read-out: IC50, inhibition of proliferation (XTT assay)
Experimental: (§4) Then the concentration was maintained at 5 μM.
MV4-11 or HL-60 cells were seeded into a clear-bottom 96-well plate containing varying concentrations of inhibitors in the optimal growth media described above and the mixtures were incubated for 16 h. Cells were then treated with a mixture of XTT-labeling reagents and the electron coupling reagents according to the manufacturer's protocol (Roche). After 4 h, the absorbance values at 475 nm and at 660 nm were simultaneously measured by Synergy™ Neo spectrofluorometer at 25° C. Cells with the growth media was used for background correction.

[8] = test system: MV4-11 cells; assay: Generation of drug-resistant MV4-11 cells under chronic treatment; format: cell-based; conditions: inhibitor increased from 0.5 to 5 μM over 10 weeks
Experimental: as §4

inhibition of membrane binding of Syk-cSH2 E164D [6]: not inhibited
IC50 [7]: 500 ± 10 nM
Compound: [N-]=[N+]=C(C(=O)OC1CCCCC1)C(Nc1ncccn1)c1c[nH]c2ccccc12 (racemic) [WC36, Cyclohexyl 2-diazo-3-(1H-indol-3-yl)-3-(pyrimidin-2-ylamino)propanoate]
inhibition of phosphorylation of Syk WT and ERK1/2 [1]: potently suppressed phosphorylation of Syk WT and ERK1/2
inhibition of phosphorylation of Syk E164D/E164Q and ERK1/2 [2]: did not inhibit phosphorylation of these mutants and ERK1/2
inhibition of Syk activation [3]: significant inhibition of Syk activation
suppression of colony forming activity [4]: statistically significant suppression of colony forming activity
competition with WC36B for Syk binding [5]: able to compete with WC36B for Syk binding
development of acquired resistance [8]: could not develop resistance to WC36
